According to paper PMC7068650, “In silico screening of GMQ-like compounds reveals guanabenz and sephin1 as new allosteric modulators of acid-sensing ion channel 3” (Biochemical Pharmacology, 2020):
pEC50: −log10 of the molar value.

Assays:
Assay type in all cases: cell-based
[1] = molecular target: T1, acid-sensing ion channel 3 (rASIC3) (Rattus norvegicus, UniProt O35240); assay: whole-cell patch clamp, rASIC3-transfected CHO cells, activation at pH […] (estimated EC50; also potentiates pH […] and pH […] responses)
T1 construct: gene Asic3
T1 sequence (O35240 1-533): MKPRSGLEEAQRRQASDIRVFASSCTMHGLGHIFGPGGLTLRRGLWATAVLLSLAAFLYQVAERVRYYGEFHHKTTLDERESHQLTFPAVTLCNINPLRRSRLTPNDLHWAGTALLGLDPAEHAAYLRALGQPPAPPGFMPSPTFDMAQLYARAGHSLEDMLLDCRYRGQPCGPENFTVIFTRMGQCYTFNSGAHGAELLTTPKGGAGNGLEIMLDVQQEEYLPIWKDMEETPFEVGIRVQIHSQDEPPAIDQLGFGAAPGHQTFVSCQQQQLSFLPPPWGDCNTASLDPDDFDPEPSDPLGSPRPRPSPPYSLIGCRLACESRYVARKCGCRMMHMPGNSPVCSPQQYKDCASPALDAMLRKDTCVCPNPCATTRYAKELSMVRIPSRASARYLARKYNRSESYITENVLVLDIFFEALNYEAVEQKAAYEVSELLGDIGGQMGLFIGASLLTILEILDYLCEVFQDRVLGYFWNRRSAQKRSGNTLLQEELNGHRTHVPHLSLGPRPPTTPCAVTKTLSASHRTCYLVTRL

[2] = molecular target: T1, acid-sensing ion channel 3 (rASIC3); assay: whole-cell patch clamp, rASIC3-transfected CHO cells, activation at pH […] (reference agonist; estimated EC50)
[3] = molecular target: T1, acid-sensing ion channel 3 (rASIC3); assay: whole-cell patch clamp, rASIC3-transfected CHO cells, potentiation of the pH […] response at […] (no effect on pH […] response)

N=C(N)N/N=C/c1c(Cl)cccc1Cl [GBZ, guanabenz]
pEC50 [1]: ~4.17

Cc1nc(NC(=N)N)nc2ccccc12 [GMQ, 2-guanidine-4-methylquinazoline]
pEC50 [2]: ~3.17

Clc1ccc2nsnc2c1NC1=NCCN1 [TIZ, tizanidine]
whole-cell patch clamp, rASIC3-transfected CHO cells, potentiation of the pH 7 r [3]: TIZ and GBZ produced a similar effect, inducing an increase in the peak and sustained currents
